In ChEMBL document CHEMBL5226381, “Iterative Methylation Leads to 3-Methylchuangxinmycin Production in Actinoplanes tsinanensis CPCC 200056” (2023) one finds MIC data, which are given here for five compounds.

Common to all, as to format: functional
Holding throughout (conditions): time 7-10 day

For assay [1], the system named is Mycobacterium tuberculosis. Put plainly: Antitubercular activity against INH/RIF-resistant Mycobacterium tuberculosis clinical isolate M6 assessed as inhibition of bacterial growth incubated for 7 to 10 days by Alamar Blue staining based analysis. For orientation: Alamar Blue is a resazurin reagent that responds to reducing activity.
Assay [2] has as its system Mycobacterium tuberculosis. Briefly: Antitubercular activity against INH/RIF-resistant Mycobacterium tuberculosis clinical isolate M7 assessed as inhibition of bacterial growth incubated for 7 to 10 days by Alamar Blue staining based analysis.
For assay [3], the system named is Mycobacterium tuberculosis. Put plainly: Antitubercular activity against INH/RIF-resistant Mycobacterium tuberculosis clinical isolate M15 assessed as inhibition of bacterial growth incubated for 7 to 10 days by Alamar Blue staining based analysis.
Assay [4] relates to Mycobacterium tuberculosis. Briefly: Antitubercular activity against INH/RIF-resistant Mycobacterium tuberculosis clinical isolate M34 assessed as inhibition of bacterial growth incubated for 7 to 10 days by Alamar Blue staining based analysis.

One may read the MIC as the lowest concentration found to suppress growth.

≈ marks a conversion by molar mass, not a printed value.

For the compound `O=C(O)[C@H]1Cc2c[nH]c3cccc(c23)S1`, the MIC in assay [1], in assay [2], in assay [3] and in assay [4] was 0.78 µg/mL (≈ 3.56 µM) in each case.

With `CC1(C)c2c[nH]c3cccc(c23)S[C@H]1C(=O)O`, the MIC in assay [1] turned out to be 12.5 µg/mL (≈ 50.5 µM); in assay [2], 25 µg/mL (≈ 101 µM); in assay [3], 12.5 µg/mL (≈ 50.5 µM); in assay [4] it was 25 µg/mL (≈ 101 µM).

Take `C[C@H]1c2c[nH]c3cccc(c23)S[C@H]1C(=O)O` [CHUANGXINMYCIN]: the MIC in assay [1] was 0.78 µg/mL (≈ 3.34 µM); in assay [2] it was 0.78 µg/mL (≈ 3.34 µM); in assay [3], 1.56 µg/mL (≈ 6.69 µM); in assay [4] it was 3.12 µg/mL (≈ 13.4 µM).

As for `NNC(=O)c1ccncc1` [ISONIAZID], the minimal inhibitory concentration (MIC) was determined as 8 µg/mL (≈ 58.3 µM) in assay [1], 8 µg/mL (≈ 58.3 µM) in assay [2], 4 µg/mL (≈ 29.2 µM) in assay [3] and 8 µg/mL (≈ 58.3 µM) in assay [4].

On to `CO[C@H]1/C=C/O[C@@]2(C)Oc3c(C)c(O)c4c(O)c(c(/C=N/N5CCN(C)CC5)c(O)c4c3C2=O)NC(=O)/C(C)=C\C=C\[C@H](C)[C@H](O)[C@@H](C)[C@@H](O)[C@@H](C)[C@H](OC(C)=O)[C@@H]1C` [RIFAMPIN], for which the MIC in assay [1] is 16 µg/mL (≈ 19.4 µM); in assay [2], 8 µg/mL (≈ 9.72 µM); in assay [3] it was above 64 µg/mL; in assay [4], 16 µg/mL (≈ 19.4 µM).
